Results taken from paper PMC7619385 (ACS infectious diseases, 2025).
Read-outs that look alike come from different tables or passages of the source.

What was measured:
LmxCLK1 [1] = molecular target: T1, LmxCLK1 (Leishmania mexicana, UniProt E9AMP2); assay: biochemical; type: binding
T1 sequence (E9AMP2 1-422): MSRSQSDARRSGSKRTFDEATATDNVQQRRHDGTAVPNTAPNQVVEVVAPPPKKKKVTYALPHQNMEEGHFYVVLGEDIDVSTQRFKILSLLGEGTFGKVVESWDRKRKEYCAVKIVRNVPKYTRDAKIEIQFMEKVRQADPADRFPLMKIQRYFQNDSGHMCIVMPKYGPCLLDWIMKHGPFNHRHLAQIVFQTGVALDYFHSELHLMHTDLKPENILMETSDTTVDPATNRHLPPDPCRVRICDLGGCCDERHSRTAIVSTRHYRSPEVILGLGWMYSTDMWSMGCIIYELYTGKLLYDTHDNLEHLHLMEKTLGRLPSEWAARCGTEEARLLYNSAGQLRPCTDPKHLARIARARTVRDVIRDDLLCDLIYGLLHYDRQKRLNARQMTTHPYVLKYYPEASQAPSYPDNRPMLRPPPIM

LmxCLK1 [2] = molecular target: T1, LmxCLK1; assay: HTRF (TR-FRET) enzymatic inhibition assay; type: biochemical
Method: The enzymatic activity of full-length LmxCLK1 was monitored using a homogenous time-resolved fluorescence (HTRF)-based assay (HTRF KinEASE-STK S3 kit, Cisbio - catalog #62ST3PEC). For IC50 value determination, the data from two independent experiments performed in duplicate were fitted to the sigmoidal dose-response (variable slope) equation available in GraphPad Prism (v. 9.1.0). Detailed information for IC50 determination can be found in the Supplementary Information. […]
min at 4 °C. The supernatants were loaded onto an immobilized metal affinity chromatography (IMAC) […]
column (5 mL HisTrap FF Crude, GE Healthcare) and washed in Binding Buffer containing 30 mM imidazole.
Proteins were eluted in Binding Buffer with 300 mM imidazole. To remove the N-terminal 6xHis-tag […]
introduced during cloning (see above), proteins were incubated with TEV protease during dialysis […]
overnight at 4 °C into Gel Filtration Buffer (20 mM HEPES, 500 mM NaCl, 5% glycerol, 0.5 mM TCEP).
Recombinant proteins were further purified using reverse affinity chromatography on Ni-Sepharose […]
followed by gel filtration (Superdex 200 16/60, GE Healthcare), and concentrated using 10 kDa molecular […]
weight cut-off centrifugal concentrators (Millipore). LmxCLK1 (CQMED clone ID LmxCLK1-cb001) and […]
NLuc-LmxCLK1 (CQMED clone ID LmxCLK1-cb021) proteins were stored at -80 °C for in vitro biochemical […]
assays at 0.5 mg/mL and 0.7 mg/mL, respectively, measured by UV absorbance with a NanoDrop […]
spectrophotometer (Thermo Scientific), using the calculated molecular weight and estimated extinction […]
Purified proteins were further analyzed by LC-ESI-MS in a XEVO G2 Sx Q-ToF (Waters). Expected intact […]
masses for LmxCLK1 (CQMED clone ID LmxCLK1-cb001) and NLuc-LmxCLK1 (CQMED clone ID LmxCLK1- […]
cb021) were: 48,791.14 Da and 68,411.71 Da, respectively.
We monitored the activity of recombinantly produced full-length LmxCLK1 (CQMED clone ID LmxCLK1- […]
cb001) using a commercially-available homogenous time-resolved fluorescence (HTRF)-based assay (HTRF […]
KinEASE-STK S3 kit, Cisbio - catalog #62ST3PEC). Assay development included establishing reaction […]
parameters (optimal enzyme concentration, ATP concentration and reaction time).
(15-point, 3-fold serial dilution and a highest final assay concentration of 10 µM) prior to transfer (100 nL) […]
to a black, 384-well, round bottom, low-volume plate (Corning catalog #4514) containing a mixture of […]
LmxCLK1 and peptide substrate in kinase buffer using an automated liquid transferring system (CYBIO […]
FeliX®, Analytik Jena, Jena, Germany). […]
started by the addition of ATP and allowed to proceed for 75 min at 30 °C. Final concentrations for reaction […]
components were: 6 nM LmxCLK1, 66 µM ATP (10× KM,ATP), 1 µM peptide (STK Substrate 3-biotin, Cisbio).
All components were prepared in 1× Enzymatic Buffer (Cisbio) supplemented with 5 mM MgCl2, 1 mM […]
DTT, 0.01% Tween-20. The reaction was stopped by the addition of Detection Buffer containing EDTA, […]
Fluorescence signal was measured using a CLARIOstar microplate reader (BMG LABTECH) with excitation […]
at 330 nm, emission at 665 nm (acceptor) and 620 nm (donor), integration delay 60 μs and integration […]
time 400 μs. All reactions were done in duplicate and two independent experiments were performed.
Enzyme activity was expressed as the background-corrected HTRF ratio of the acceptor and donor […]
emission signals according to equation [1]:
(also on this page, place not known: imi dazole. Ni -Sepharose background -corrected (665/620)=3Acceptor!!"#$ −backgroundD.10,000 Downloaded from http://pubs.acs.org/aidcbc/article-supplement/3662943/pdf/id5c00610_si_001/ by guest on 07 August 2026) […]
where background is the background fluorescence obtained in the absence of enzyme (blank).
To determine IC50 values, the background-corrected HTRF ratio was plotted as a function of test

NLuc::LmxCLK1 = NLuc::LmxCLK1 (Leishmania mexicana, UniProt E9AMP2); assay: cell-based; type: cell-based; conditions: for receptor occupancy at 10 µM: read-out: Target occupancy Average
In short: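 NanoBRET tracer displacement in live cells expressing NLuc-tagged CLK1, test compounds at 10 µM fixed, 1% DMSO final. Acceptor/donor emission (610/460 nm) ratio gives mBRET, converted to blank-corrected probe occupancy (%); probe KD from single-site saturation binding fits.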

[3] = purified LmxCLK1, 30-min pre-incubation, 66 µM ATP, read-out: IC50 enzymatic inhibition of LmxCLK1

`Cc1ccc(C(=O)Nc2ccc(CN3CCN(C)CC3)c(C(F)(F)F)c2)cc1C#Cc1cnc2[nH]ncc2c1` [GZD824] gave a ΔTm at 10 µM (LmxCLK1 [1]; DSF, 10 µM compound, 2 µM LmxCLK1, Run 1, read-out: ΔTm Run 1) of 17.1 °C, a ΔTm at 10 µM (LmxCLK1 [1]; DSF, 10 µM compound, 2 µM LmxCLK1, Run 2, read-out: ΔTm Run 2) of 17.7 °C and a ΔTm at 10 µM (LmxCLK1 [1]; DSF, 10 µM compound, 2 µM LmxCLK1, mean of two runs, read-out: ΔTm Average) of 17.4 ± 0.3 °C. The IC50 (LmxCLK1 [2]; IC50 enzymatic inhibition of LmxCLK1, purified LmxCLK1, 30-min pre-incubation, 66 µM ATP) was 29.9 nM, the IC50 (NLuc::LmxCLK1) was 4600 nM and the receptor occupancy at 10 µM (NLuc::LmxCLK1) was 46.5 ± 3.2%.

`C=CC(=O)Nc1cccc(Oc2nc(Nc3ccc(N4CCN(C)CC4)cc3)ncc2Cl)c1` [WZ3146] gave a ΔTm at 10 µM (LmxCLK1 [1]; read-out: ΔTm Average) of 14.3 ± 0.1 °C, a ΔTm at 10 µM (LmxCLK1 [1]; read-out: ΔTm Run 1) of 14.2 °C and a ΔTm at 10 µM (LmxCLK1 [1]; read-out: ΔTm Run 2) of 14.4 °C. The IC50 (LmxCLK1 [2]; [3]) was 340 nM, the IC50 (NLuc::LmxCLK1) was 13600 nM and the receptor occupancy at 10 µM (NLuc::LmxCLK1) was 35.2 ± 3.3%.

Work on `C=CC(=O)Nc1cccc(Sc2nc(Nc3ccc(N4CCN(C)CC4)cc3)ncc2Cl)c1` [WZ8040] yielded a ΔTm at 10 µM (LmxCLK1 [1]; read-out: ΔTm Average) of 14.8 ± 0.1 °C, a ΔTm at 10 µM (LmxCLK1 [1]; read-out: ΔTm Run 1) of 14.7 °C and a ΔTm at 10 µM (LmxCLK1 [1]; read-out: ΔTm Run 2) of 15 °C. For the same molecule, the IC50 (LmxCLK1 [2]; pre-incubation 0 min, read-out: Time-dependent IC50) was 1660 nM, the IC50 (LmxCLK1 [2]; pre-incubation 5 min, read-out: Time-dependent IC50) was 940 nM and the IC50 (LmxCLK1 [2]; pre-incubation 10 min, read-out: Time-dependent IC50) was 911 nM. It also gave an IC50 (LmxCLK1 [2]; pre-incubation 15 min, read-out: Time-dependent IC50) of 862 nM, an IC50 (LmxCLK1 [2]; pre-incubation 30 min, read-out: Time-dependent IC50) of 759 nM and an IC50 (LmxCLK1 [2]; [3]) of 204 nM. The IC50 (NLuc::LmxCLK1) was 2900 nM and the receptor occupancy at 10 µM (NLuc::LmxCLK1) was 60.8 ± 0.8%.
